Experimental data published in patent US20100010049A1, “Novel Tyrosinase inhibitors and pharmaceutical/cosmetic applications thereof” (GALDERMA RESEARCH & DEVELOPMENT, priority 2006, published 2010).
pIC50: −log10 of the molar value.

Assays:
tyrosinase = biological target: T1, tyrosinase (Mus musculus, UniProt P11344); test: Tyrosinase activity inhibition assay (B16F1 cell lysate, L-tyrosine substrate, MBTH, absorbance at 520 nm); type: biochemical; conditions: lysate of B16F1 cells (murine melanoma line) as tyrosinase source, 37° C., reading at 520 nm after 6 hours
T1 construct: the supernatant obtained constitutes the cell lysate used as tyrosinase source in the enzymatic assay; endogenous in cells; host or cells: B16F1 murine melanoma cells, cultured with alpha-MSH; detergent lysate supernatant
T1 sequence (P11344 19-533): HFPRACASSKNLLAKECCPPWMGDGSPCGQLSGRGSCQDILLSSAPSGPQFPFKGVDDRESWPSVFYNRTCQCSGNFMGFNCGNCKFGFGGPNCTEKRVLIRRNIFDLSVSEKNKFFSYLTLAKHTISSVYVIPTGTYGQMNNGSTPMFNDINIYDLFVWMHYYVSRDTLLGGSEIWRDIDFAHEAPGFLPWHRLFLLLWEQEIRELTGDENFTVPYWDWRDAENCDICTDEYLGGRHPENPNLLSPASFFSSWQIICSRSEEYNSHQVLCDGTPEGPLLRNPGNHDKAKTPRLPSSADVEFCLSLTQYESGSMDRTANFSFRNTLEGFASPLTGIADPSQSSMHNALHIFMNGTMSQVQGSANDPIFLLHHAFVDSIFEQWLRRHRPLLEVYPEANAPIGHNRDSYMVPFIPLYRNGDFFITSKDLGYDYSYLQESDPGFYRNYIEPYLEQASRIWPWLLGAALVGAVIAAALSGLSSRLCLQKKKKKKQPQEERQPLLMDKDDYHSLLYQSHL
Protocol: The activity of the inhibitors is measured starting from a lysate of B16F1 cells (murine melanoma line). In the presence of the L-tyrosine substrate, the tyrosinase present in these cells catalyses the hydroxylation of L-tyrosine to give L-DOPA and then the oxidation of the L-DOPA to give dopaquinone. In the presence of MBTH (3-methyl-2-benzothiazolinone hydrazone), the dopaquinone is trapped so as to form a pink complex which absorbs at 520 nm.
The B16F1 cells are cultured in DMEM medium+10% foetal calf serum+10^−9 M α-MSH for 4 days at 37° C. under 7% CO2. They are treated with trypsin, washed with PBS, counted and pelleted. The pellet is taken up at 10^7 cells/ml in lysis buffer (10 mM sodium phosphate, pH 6.8−1% Igepal) and the suspension is treated with ultrasound for 10 seconds. After centrifugation for 30 minutes at 4000 rpm, the supernatant obtained constitutes the cell lysate used as tyrosinase source in the enzymatic assay.
The assays are carried out in duplicate in 384-well plates in a total volume of 50 μl. Each well contains: • 40 μl of solution containing 1.25 mM L-tyrosine, 6.25 μM L-DOPA (cofactor) and 3.75 mM MBTH in buffer B (62.25 mM sodium phosphate, pH 6.8-2.5% dimethylformamide), • 5 μl of inhibitor diluted in DMSO, • 5 μl of cell lysate diluted to ½ in 50 mM Tris HCl buffer, pH 7.5.
The plate is incubated at 37° C. and a spectrophotometric reading is carried out at 520 nm after incubating for 6 hours. In order to avoid any possible absorption of the products, the system employs corrected absorbance (absorbance at time 6 h—absorbance at time zero).
The inhibitors are assayed in terms of dose-response so as to calculate an IC50 (dose which inhibits 50% of the enzymatic activity).
Several internal controls are added to each experiment: • control for 100% activity: the 5 μl of inhibitor are replaced with 5 μl of DMSO, • control for 50% activity: the 5 μl of inhibitor are replaced with 5 μl of phenylthiourea at 300 μM in DMSO, • control for 0% activity: the L-tyrosine substrate is replaced with buffer B.

Row | Structure (SMILES) | pIC50 (tyrosinase) | melting point [°C]
1 | On1c(-c2ccccc2)c[nH]c1=S [Compound 4, 1-hydroxy-5-phenyl-1,3-dihydroimidazole-2-thione] | 6.05 | –
2 | COc1ccc(-c2c[nH]c(=S)n2O)cc1 [Compound 6, 1-hydroxy-5-(4-methoxyphenyl)-1,3-dihydroimidazole-2-thione] | 6.09 | 150
3 | On1cc(-c2ccccc2)[nH]c1=S [Compound 5, 1-hydroxy-4-phenyl-1,3-dihydroimidazole-2-thione] | – | 196.3
4 | S=c1[nH]ccn1OCc1cccnc1 [Compound 2, 1-(pyridin-3-ylmethoxy)-1,3-dihydroimidazole-2-thione] | – | 128 to 129
5 | On1c(-c2cccs2)c[nH]c1=S [Compound 8, 1-hydroxy-5-(thiophen-2-yl)-1,3-dihydroimidazole-2-thione] | 5.43 | 183.6 to 184.8
6 | COc1ccc(-c2cn(O)c(=S)[nH]2)cc1 [Compound 7, 1-hydroxy-4-(4-methoxyphenyl)-1,3-dihydroimidazole-2-thione] | – | 160
7 | COn1cc[nH]c1=S [Compound 1, 1-methoxy-1,3-dihydroimidazole-2-thione] | – | 111 to 111.8
8 | COn1ccn(C)c1=S [Compound 3, 1-methoxy-3-methyl-1,3-dihydroimidazole-2-thione] | 4.14 | 56.9 to 57.5
